# Measurements: patent US11384079B2, “6-5 fused rings as C5a inhibitors” (CHEMOCENTRYX, INC., priority 2017, dated 2022)
# Molecular target: T1, C5aR (Homo sapiens, UniProt P21730)
# T1 construct: U937 cells are a monocytic cell line which express C5aR; host or cells: U937 cells (cAMP treated) or isolated neutrophils
# T1 sequence (P21730 1-350): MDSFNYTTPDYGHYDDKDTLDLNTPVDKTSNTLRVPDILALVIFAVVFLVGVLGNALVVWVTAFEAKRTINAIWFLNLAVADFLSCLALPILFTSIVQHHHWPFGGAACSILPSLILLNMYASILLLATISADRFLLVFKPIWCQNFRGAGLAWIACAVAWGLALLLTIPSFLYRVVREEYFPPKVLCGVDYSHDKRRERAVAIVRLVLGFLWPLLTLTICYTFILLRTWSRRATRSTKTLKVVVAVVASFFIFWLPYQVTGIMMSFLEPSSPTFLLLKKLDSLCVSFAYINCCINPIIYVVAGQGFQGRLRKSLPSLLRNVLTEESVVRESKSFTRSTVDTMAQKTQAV
# Assay: chemotaxis assay (C5aR mediated migration)
# Format: cell-based
# Conditions: migration of U937 or neutrophil cells toward C5a (0.03 nM), 1.5 hours at 37° C., read-out: Mig IC50
# Method in brief: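 Migration of cAMP-treated U937 cells (0.5 mM overnight), or of human or murine neutrophils, toward C5a was measured through 5 μm polycarbonate filters in HBSS with 1% FBS. SDF-1α served as a specificity control. After 1.5 h at 37 °C, lower-chamber cells were counted directly or by CyQuant.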
row,SMILES,IC50 [nM]
1,CCc1cccc(CC)c1-n1nc2c(c1-c1ccc(C)c3[nH]ccc13)CN(c1ncc(C(F)(F)F)cc1F)CC2 [Example 1.181],< 5
2,CCc1cccc(CC)c1-n1nc2c(c1-c1c(F)cc(F)c3[nH]ccc13)CN(c1ncc(C(F)(F)F)cc1F)CC2 [Example 1.182],5 to 50
3,CCc1cccc(CC)c1-n1nc2c(c1-c1ccc(F)c3[nH]ccc13)CN(c1ncc(C(F)(F)F)cc1Cl)CC2 [Example 1.183],5 to 50
4,CCc1cccc(CC)c1-n1nc2c(c1-c1ccc(F)c3[nH]ccc13)CN(c1ncc(Cl)cn1)CC2 [Example 1.184],< 5
5,CCc1cccc(CC)c1-n1nc2c(c1-c1ccc(Cl)c3[nH]ccc13)CN(c1ncc(C(F)(F)F)cc1F)CC2 [Example 1.185],< 5
6,CCc1cccc(CC)c1-n1nc2c(c1-c1ccc(F)c3[nH]ccc13)CN(c1ncc(Cl)cc1Cl)CC2 [Example 1.187],< 5
7,CCc1cccc(CC)c1-n1nc2c(c1-c1ccc(F)c3[nH]ccc13)CN(c1ncc(C(F)(F)F)cc1F)CC2 [Example 1.188],< 5
8,CCc1cccc(CC)c1-n1nc2c(c1-c1ccc3[nH]ccc3c1)CN(C(C)c1ccccc1C(F)(F)F)CC2 (stereo not drawn) [Example 1.202],5 to 50
9,Cc1cccc(OCC(C)C)c1-n1nc2c(c1-c1ccc3[nH]cc(C)c3c1)CN(c1ncc(C(F)(F)F)cc1F)CC2 [Example 1.204],50 to 500
10,Cc1cccc(OCC(C)C)c1-n1nc2c(c1-c1cccc3[nH]ccc13)CN(Cc1cc(Cl)ccc1C(F)(F)F)CC2 [Example 1.205],5 to 50
11,CCc1cccc(CC)c1-n1nc2c(c1-c1ccc3[nH]ccc3c1)CN(C1CCOCC1)CC2 [Example 1.208],50 to 500
12,CCc1cccc(CC)c1-n1nc2c(c1-c1ccc3[nH]ccc3c1)CN(C1CCCC1)CC2 [Example 1.209],5 to 50
13,CCc1cccc(CC)c1-n1nc2c(c1-c1ccc3[nH]ccc3c1)CN(C(C)C(C)C)CC2 (stereo not drawn) [Example 1.211],5 to 50
14,CCc1cccc(CC)c1-n1nc2c(c1-c1ccc3[nH]ccc3c1)CN(C(CC)CC)CC2 [Example 1.212],< 5
15,Cc1cccc(OCC(C)C)c1-n1nc2c(c1-c1ccc3[nH]nc(C)c3c1)CN(c1ncc(C(F)(F)F)cc1F)CC2 [Example 1.215],> 500
16,Cc1cccc(OCC(C)C)c1-n1nc2c(c1-c1ccnc3[nH]ccc13)CN(c1ncc(C(F)(F)F)cc1F)CC2 [Example 1.217],50 to 500
17,Cc1cccc(OCC(C)C)c1-n1nc2c(c1-c1cc(F)c3[nH]ccc3c1)CN(c1ncc(C(F)(F)F)cc1F)CC2 [Example 1.218],< 5
18,FC(F)(F)c1ccccc1CN1CCc2nn(-c3c(Cl)cccc3Cl)c(-c3ccc4[nH]ccc4c3)c2C1 [Example 1.219],5 to 50

row,SMILES,IC50 [nM]
1,CCc1cccc(CC)c1-n1nc2c(c1-c1ccc3[nH]cc(Cl)c3c1)CN(Cc1cc(F)ccc1Cl)CC2 [Example 1.220],5 to 50
2,Cc1cccc(C)c1-n1nc2c(c1-c1ccc3[nH]ccc3c1)CN(Cc1ccccc1C(F)(F)F)CC2 [Example 1.221],5 to 50
3,Cc1cccc(OCC(C)C)c1-n1nc2c(c1-c1cccc3[nH]ccc13)CN(Cc1ccccc1C(F)(F)F)CC2 [Example 1.222],5 to 50
4,CCc1cccc(CC)c1-n1nc2c(c1-c1ccc3[nH]ccc3c1)CN(Cc1c(Cl)cccc1C(F)(F)F)CC2 [Example 1.223],< 5
5,Cc1nc2cc(-c3c4c(nn3-c3c(C)cccc3OCC(C)C)CCN(c3ncc(C(F)(F)F)cc3F)C4)ccc2[nH]1 [Example 1.224],> 500
6,Cc1cccc(OCC(C)C)c1-n1nc2c(c1-c1ccc3[nH]nc(N)c3c1)CN(c1ncc(C(F)(F)F)cc1F)CC2 [Example 1.225],> 500
7,CCc1cccc(CC)c1-n1nc2c(c1-c1ccc3[nH]ccc3c1)CN(Cc1cc(Cl)ccc1C(F)(F)F)CC2 [Example 1.226],< 5
8,CCc1cccc(CC)c1-n1nc2c(c1-c1ccc3[nH]ccc3c1)CN(Cc1cc(Cl)ccc1Cl)CC2 [Example 1.227],< 5
9,Cc1cccc(OCC(C)C)c1-n1nc2c(c1-c1cccc3[nH]ccc13)CN(c1ncc(C(F)(F)F)cc1F)CC2 [Example 1.229],5 to 50
10,CCc1cccc(CC)c1-n1nc2c(c1-c1ccc3[nH]ccc3c1)CN(Cc1cc(F)ccc1Cl)CC2 [Example 1.230],< 5
11,CCc1cccc(CC)c1-n1nc2c(c1-c1ccc3[nH]ccc3c1)CN(Cc1ccccc1C(F)(F)F)CC2 [Example 1.231],< 5
12,Cc1cccc(OCC(C)C)c1-n1nc2c(c1-c1ccc3[nH]ccc3c1)CN(C(C)c1ccccc1C(F)(F)F)CC2 (stereo not drawn) [Example 1.233],< 5
13,Cc1cccc(OCC(C)C)c1-n1nc2c(c1-c1ccc3[nH]ccc3c1)CN(Cc1ccc(C(F)(F)F)cc1C(F)(F)F)CC2 [Example 1.234],5 to 50
14,Cc1cccc(OCC(C)C)c1-n1nc2c(c1-c1ccc3[nH]ccc3c1)CN(Cc1ccccc1C(F)(F)F)CC2 [Example 1.235],< 5
15,Cc1cccc(OCC(C)C)c1-n1nc2c(c1-c1ccc3cc[nH]c3c1)CN(CC(C)(C)C)CC2 [Example 1.236],50 to 500
16,Cc1cccc(OCC(C)C)c1-n1nc2c(c1-c1ccc3[nH]ccc3c1)CN(C(=O)OCc1ccccc1)CC2 [Example 1.238],5 to 50
17,Cc1cccc(C)c1-n1nc2c(c1-c1ccc3[nH]ccc3c1)CN(CC(C)(C)C)CC2 [Example 1.239],5 to 50
18,Cc1cccc(C)c1-n1nc2c(c1-c1ccc3[nH]ccc3c1)CN(C(=O)OC(C)(C)C)CC2 [Example 1.240],5 to 50

# Next, values leading:
row,IC50 [nM],SMILES
1,50 to 500,Cc1cccc(OCC(C)C)c1-n1nc2c(c1-c1ccc3[nH]ccc3c1)CN(C(=O)NC(C)(C)C)CC2 [Example 1.186]
2,50 to 500,Cc1cccc(C)c1-n1nc2c(c1-c1cc(C)c3[nH]ccc3c1)CN(c1ncc(Cl)cc1Cl)CC2 [Example 1.189]
3,> 500,Cc1cccc(C)c1-n1nc2c(c1-c1ccc3[nH]cc(C#N)c3c1)CN(c1ncc(Cl)cc1Cl)CC2 [Example 1.190]
4,50 to 500,Cc1cccc(C)c1-n1nc2c(c1-c1cc(Cl)c3[nH]ccc3c1)CN(c1ncc(Cl)cc1Cl)CC2 [Example 1.191]
5,> 500,Cc1cccc(C)c1-n1nc2c(c1-c1ccc3[nH]ncc3c1)CN(c1ncc(Cl)cc1Cl)CC2 [Example 1.192]
6,50 to 500,Cc1cccc(C)c1-n1nc2c(c1-c1cc3cc[nH]c3cc1F)CN(c1ncc(Cl)cc1Cl)CC2 [Example 1.193]
7,50 to 500,Cc1cccc(C)c1-n1nc2c(c1-c1cc(F)c3[nH]ccc3c1)CN(c1ncc(Cl)cc1Cl)CC2 [Example 1.194]
8,5 to 50,Cc1cccc(C)c1-n1nc2c(c1-c1ccc3[nH]ccc3c1F)CN(c1ncc(Cl)cc1Cl)CC2 [Example 1.195]
9,5 to 50,Cc1cccc(C)c1-n1nc2c(c1-c1cccc3[nH]ccc13)CN(c1ncc(Cl)cc1Cl)CC2 [Example 1.196]
10,5 to 50,Cc1cccc(C)c1-n1nc2c(c1-c1ccc3[nH]ccc3c1)CN(c1ncc(Cl)cc1Cl)CC2 [Example 1.197]
11,5 to 50,Cc1cccc(OCC(C)C)c1-n1nc2c(c1-c1cccc3[nH]ccc13)CN(c1ncc(C(C)C)cc1F)CC2 [Example 1.198]
12,< 5,Cc1cccc(OCC(C)C)c1-n1nc2c(c1-c1ccc3[nH]ccc3c1)CN(C(C)(C)c1ccccc1)CC2 [Example 1.199]
13,< 5,Cc1cccc(OCC(C)C)c1-n1nc2c(c1-c1ccc3[nH]ccc3c1)CN(c1ncc(Cl)cc1Cl)CC2 [Example 1.200]
14,5 to 50,Cc1cccc(OCC(C)C)c1-n1nc2c(c1-c1cccc3[nH]ccc13)CN(c1ncc(Cl)cc1Cl)CC2 [Example 1.201]
15,5 to 50,Cc1cccc(OCC(C)C)c1-n1nc2c(c1-c1ccc3[nH]ccc3c1)CN(Cc1cc(Cl)ccc1C(F)(F)F)CC2 [Example 1.203]
16,5 to 50,Cc1cccc(OCC(C)C)c1-n1nc2c(c1-c1ccc3[nH]ccc3c1)CN(C(C)CC(F)(F)F)CC2 (stereo not drawn) [Example 1.206]
17,5 to 50,CCC(CC)N1CCc2nn(-c3c(C)cccc3OCC(C)C)c(-c3ccc4[nH]ccc4c3)c2C1 [Example 1.207]
18,5 to 50,Cc1cccc(OCC(C)C)c1-n1nc2c(c1-c1ccc3[nH]ccc3c1)CN(c1nc(C(C)C)ns1)CC2 [Example 1.210]
19,5 to 50,C=C(C)c1nsc(N2CCc3nn(-c4c(C)cccc4OCC(C)C)c(-c4ccc5[nH]ccc5c4)c3C2)n1 [Example 1.213]
20,5 to 50,Cc1cccc(OCC(C)C)c1-n1nc2c(c1-c1ccc3[nH]ccc3c1)CN(c1nc(Cl)ns1)CC2 [Example 1.214]
21,5 to 50,Cc1cccc(OCC(C)C)c1-n1nc2c(c1-c1ccc3[nH]ccc3c1)CN(c1ncc(C(F)(F)F)cc1Cl)CC2 [Example 1.216]
22,50 to 500,Cc1cccc(OCC(C)C)c1-n1nc2c(c1-c1ccc3cc[nH]c3c1)CN(c1ncc(C(F)(F)F)cc1F)CC2 [Example 1.228]
23,< 5,Cc1cccc(OCC(C)C)c1-n1nc2c(c1-c1ccc3[nH]ccc3c1)CN(c1ncc(C(F)(F)F)cc1F)CC2 [Example 1.232]
24,< 5,Cc1cccc(OCC(C)C)c1-n1nc2c(c1-c1ccc3[nH]ccc3c1)CN(CC(C)(C)C)CC2 [Example 1.237]
